According to EP0549264A1, “Purified para-nitrobenzyl esterase from bacillus” (OKLAHOMA STATE UNIVERSITY, priority 1991, dated 1993):

target: T1, PNB esterase (Bacillus subtilis, UniProt P37967); assay: PNB esterase activity assay (HPLC, method of Example 1D), effect of inhibitors; type: biochemical; details: not given
T1 construct: A culture of Bacillus subtilis NRRL B-8079 was harvested and frozen by conventional methods; made in house; host or cells: Bacillus subtilis NRRL B-8079 (natural producer; enzyme purified from cell-free extract)
T1 sequence (P37967 1-489): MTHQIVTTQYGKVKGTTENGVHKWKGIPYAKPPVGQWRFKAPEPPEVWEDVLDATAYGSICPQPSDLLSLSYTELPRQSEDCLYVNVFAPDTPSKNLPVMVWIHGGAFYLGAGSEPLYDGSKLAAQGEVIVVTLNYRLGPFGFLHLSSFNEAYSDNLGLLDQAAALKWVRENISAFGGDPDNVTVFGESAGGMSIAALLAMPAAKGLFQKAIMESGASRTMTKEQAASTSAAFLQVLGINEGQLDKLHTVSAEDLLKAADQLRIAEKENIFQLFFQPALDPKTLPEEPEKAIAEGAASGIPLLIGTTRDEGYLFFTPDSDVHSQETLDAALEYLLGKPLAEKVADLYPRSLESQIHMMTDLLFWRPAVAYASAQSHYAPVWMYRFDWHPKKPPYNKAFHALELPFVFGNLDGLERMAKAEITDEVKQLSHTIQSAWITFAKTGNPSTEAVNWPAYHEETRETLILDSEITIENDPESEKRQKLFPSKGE

Compound | inhibition at 1000 µM | PNB esterase activity inhibited (in words) | Inhibition (%)
OCCS [2-Mercaptoethanol] | 0% |  | 
O=C(O)c1cc(SSc2ccc([N+](=O)[O-])c(C(=O)O)c2)ccc1[N+](=O)[O-] [5,5'-Dithiobis(2-nitrobenzoic acid)] | 69% |  | 
C(=NC1CCCCC1)=NC1CCCCC1 [Dicyclohexyl carbodiimide] | 78% | moderately inhibited | 
CCOC(=O)OC(=O)OCC [Diethylpyrocarbonate] | 100% | strongly inhibited | 
O=C(O)CN(CCN(CC(=O)O)CC(=O)O)CC(=O)O [EDTA, ethylenediamine tetraacetic acid] | 0% |  | 
O=S(=O)([O-])[O-].[Fe+2] [FeSO4] |  |  | 100%
[Cl][Hg][Cl] [HgCl₂] |  | moderately inhibited | 100%
O=C(NC(Cc1ccccc1)C(=O)Nc1ccc2ccccc2c1)c1ccccc1 (centres unmarked) [N-benzoyl phenylalanine naptylamide] |  | moderately inhibited | 66%
O=CC(=O)c1ccccc1 [Phenylglyoxal] | 91% | moderately inhibited | 
O=S(=O)(F)Cc1ccccc1 [Phenylmethylsulfonylfluoride] |  | strongly inhibited | 
CC(=O)[O-].CC(=O)[O-].[Zn+2] [Zn(OCOCH₃)₂] |  |  | 97%
Diethyl p-nitrophenylphosphate |  | strongly inhibited | 100%

same assay, conditions: summary in words of Table 2; compounds at 1 mM

Compound | PNB esterase activity inhibited (in words)
O=C(O)c1cc(SSc2ccc([N+](=O)[O-])c(C(=O)O)c2)ccc1[N+](=O)[O-] [5,5'-Dithiobis(2-nitrobenzoic acid)] | moderately inhibited

target: T1, PNB esterase; assay: Substrate specificity comparison of native and recombinant PNB esterase; type: biochemical; details: both native enzyme and enzyme from recombinant Escherichia coli
Procedure: A 1 ml reaction mixture containing 5 µmoles Bis-Tris-Propane-HCl, pH 6.5, 0.5 µmole substrate (loracarbef PNB ester, or cefaclor PNB ester), and appropriate amounts of enzyme solution was incubated at 37°C in a constant-temperature shaker for 30 minutes The reaction was stopped by the addition of an equal volume of acetonitrile. The mixture was then centrifuged to remove the protein and the supernatant solution was analyzed by high performance liquid chromatography (HPLC) for product formation and substrate disappearance. The HPLC was performed in a C-18 reverse-phase column (Nova-Pak C₁₈ radial-pak cartridge (8 X 100 mm), Millipore Bedford, MA) with a linear gradient formed by Buffer A containing 80% of 1 mM Triethylamine-HCl, pH 2.5 and 20% methanol and Buffer B containing methanol, at a flow rate of 1 ml/minutes
The HPLC system used was a Varian HPLC system including a Vista 5560 unit (Varian Associates, Sugar Land TX) and a model 230-401 auto-sampling injector (Gilson Medical Electronics, Middleton, WI.). The PNB esterase activity was determined by monitoring product formation at 254 nm.
The PNB esterase purified from recombinant Escherichia coli was compared to the native enzyme by molecular weight, Western blot analysis, and substrate specificity.
Measurements of molecular weight gave values of 54,000 for enzyme from the two sources, and identical precipitin bands were obtained when the two enzyme preparations were tested using antibody prepared against native purified esterase. Both enzymes hydrolyzed cefaclor PNB ester, cefaclor nucleus PNB ester, loracarbef PNB ester, and loracarbef nucleus PNB ester. The native PNB esterase and the corresponding PNB esterase produced in recombinant E. coli strains appear functionally identical and structually the same at macroscale.

Compound | hydrolysis by PNB esterase
N[C@@H](C(=O)N[C@@H]1C(=O)N2C(C(=O)OCc3ccc([N+](=O)[O-])cc3)=C(Cl)CS[C@H]12)c1ccccc1 [cefaclor PNB ester] | hydrolyzed
N[C@@H]1C(=O)N2C(C(=O)OCc3ccc([N+](=O)[O-])cc3)=C(Cl)CS[C@H]12 [cefaclor nucleus PNB ester] | hydrolyzed
N[C@@H](C(=O)N[C@@H]1C(=O)N2C(C(=O)OCc3ccc([N+](=O)[O-])cc3)=C(Cl)CC[C@H]12)c1ccccc1 [loracarbef PNB ester] | hydrolyzed
N[C@@H]1C(=O)N2C(C(=O)OCc3ccc([N+](=O)[O-])cc3)=C(Cl)CC[C@H]12 [loracarbef nucleus PNB ester] | hydrolyzed
